From US8765669B2, “Glycosylated GLP-1 peptide” (Glytech, Inc., priority 2008, dated 2014)

What was measured:
[1] = biological target: T1, DPP-IV (dipeptidyl peptidase IV from porcine kidney) (Sus scrofa, UniProt P22411); assay: Test of resistance to dipeptidyl peptidase IV (DPP-IV); format: in vitro ADME; details: half-life (t1/2) in DPP-IV solution at 37° C., GLP-1 of Comparative Example 1 defined as standard (=1)
T1 construct: dipeptidyl peptidase IV from porcine kidney, product of SIGMA; purchased SIGMA; host or cells: porcine kidney (tissue-derived enzyme)
T1 sequence (P22411 whole entry): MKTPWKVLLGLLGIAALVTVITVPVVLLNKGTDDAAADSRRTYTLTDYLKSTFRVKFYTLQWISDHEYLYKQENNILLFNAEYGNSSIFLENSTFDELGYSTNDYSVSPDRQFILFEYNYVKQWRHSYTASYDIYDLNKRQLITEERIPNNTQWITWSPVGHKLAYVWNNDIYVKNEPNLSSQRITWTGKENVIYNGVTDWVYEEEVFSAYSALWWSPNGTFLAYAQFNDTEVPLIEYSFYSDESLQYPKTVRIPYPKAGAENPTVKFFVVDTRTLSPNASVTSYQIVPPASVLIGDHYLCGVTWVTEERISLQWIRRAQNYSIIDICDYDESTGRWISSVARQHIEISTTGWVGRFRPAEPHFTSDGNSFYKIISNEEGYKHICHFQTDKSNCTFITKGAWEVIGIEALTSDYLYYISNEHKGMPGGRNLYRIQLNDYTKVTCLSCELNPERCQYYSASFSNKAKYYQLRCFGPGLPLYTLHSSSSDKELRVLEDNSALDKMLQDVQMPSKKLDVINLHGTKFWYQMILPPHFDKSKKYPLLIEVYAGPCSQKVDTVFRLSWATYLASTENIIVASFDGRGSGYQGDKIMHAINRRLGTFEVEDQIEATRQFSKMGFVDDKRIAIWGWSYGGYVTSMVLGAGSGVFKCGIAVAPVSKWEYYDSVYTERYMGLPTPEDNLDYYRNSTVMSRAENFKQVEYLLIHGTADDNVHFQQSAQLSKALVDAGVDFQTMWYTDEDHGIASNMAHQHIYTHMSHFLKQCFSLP
Procedure: Each solution mixture was adjusted with 100 mM sodium phosphate buffer to 100 μl in total and allowed to react at 37° C. A 10 μaliquot of the reaction solution was mixed with 15 μl of 10% trifluoroacetic acid prepared in advance in another Eppendorf tube.

C57BL/6JJcl mice = assay: Oral Glucose Tolerance Test (OGTT); format: in vivo
Procedure: After 30 minutes, a glucose solution was orally administered at a dose of 1 mg/g. Blood was collected from the orbits before the glucose administration and 30 minutes, 60 minutes and 120 minutes after the glucose administration. Blood-sugar levels were measured using ACCU-CHEK Aviva (Roche Diagnostics). In the drawings below, for example, “26,34Cys GLP-1-disialo”, which is an oligosaccharide chain added GLP-1 peptide wherein amino acids at positions 26 and 34 of GLP-1 are each substituted with disialo oligosaccharide chain added Cys, is referred to as “C26,C34”, if necessary. The same holds true for other oligosaccharide chains and amino acid sites.
Next, 18,36Cys GLP-1-disialo and GLP-1 were evaluated by OGTT using doses of 1/10 (0.9 nmol/kg) and 9 nmol/kg, respectively, and compared.

In the case of `CC[C@H](C)[C@H](NC(=O)[C@H](Cc1ccccc1)NC(=O)[C@H](CCC(=O)O)NC(=O)[C@H](CCCCN)NC(=O)[C@H](C)NC(=O)[C@H](C)NC(=O)[C@H](CCC(N)=O)NC(=O)CNC(=O)[C@H](CCC(=O)O)NC(=O)[C@H](CC(C)C)NC(=O)[C@H](Cc1ccc(O)cc1)NC(=O)[C@H](CSCC(=O)N[C@@H]1O[C@H](CO)[C@@H](O[C@@H]2O[C@H](CO)[C@@H](O[C@@H]3O[C@H](CO[C@H]4O[C@H](CO)[C@@H](O)[C@H](O)[C@@H]4O[C@@H]4O[C@H](CO)[C@@H](O[C@@H]5O[C@H](CO[C@]6(C(=O)O)C[C@H](O)[C@@H](NC(C)=O)[C@H]([C@H](O)[C@H](O)CO)O6)[C@H](O)[C@H](O)[C@H]5O)[C@H](O)[C@H]4NC(C)=O)[C@@H](O)[C@H](O[C@H]4O[C@H](CO)[C@@H](O)[C@H](O)[C@@H]4O[C@@H]4O[C@H](CO)[C@@H](O[C@@H]5O[C@H](CO[C@]6(C(=O)O)C[C@H](O)[C@@H](NC(C)=O)[C@H]([C@H](O)[C@H](O)CO)O6)[C@H](O)[C@H](O)[C@H]5O)[C@H](O)[C@H]4NC(C)=O)[C@@H]3O)[C@H](O)[C@H]2NC(C)=O)[C@H](O)[C@H]1NC(C)=O)NC(=O)[C@H](CO)NC(=O)[C@@H](NC(=O)[C@H](CC(=O)O)NC(=O)[C@H](CO)NC(=O)[C@@H](NC(=O)[C@H](Cc1ccccc1)NC(=O)[C@@H](NC(=O)CNC(=O)[C@H](CCC(=O)O)NC(=O)[C@H](C)NC(=O)[C@@H](N)Cc1c[nH]cn1)[C@@H](C)O)[C@@H](C)O)C(C)C)C(=O)N[C@@H](C)C(=O)N[C@@H](Cc1c[nH]c2ccccc12)C(=O)N[C@@H](CC(C)C)C(=O)N[C@H](C(=O)N[C@@H](CCCCN)C(=O)NCC(=O)N[C@@H](CSCC(=O)N[C@@H]1O[C@H](CO)[C@@H](O[C@@H]2O[C@H](CO)[C@@H](O[C@@H]3O[C@H](CO[C@H]4O[C@H](CO)[C@@H](O)[C@H](O)[C@@H]4O[C@@H]4O[C@H](CO)[C@@H](O[C@@H]5O[C@H](CO[C@]6(C(=O)O)C[C@H](O)[C@@H](NC(C)=O)[C@H]([C@H](O)[C@H](O)CO)O6)[C@H](O)[C@H](O)[C@H]5O)[C@H](O)[C@H]4NC(C)=O)[C@@H](O)[C@H](O[C@H]4O[C@H](CO)[C@@H](O)[C@H](O)[C@@H]4O[C@@H]4O[C@H](CO)[C@@H](O[C@@H]5O[C@H](CO[C@]6(C(=O)O)C[C@H](O)[C@@H](NC(C)=O)[C@H]([C@H](O)[C@H](O)CO)O6)[C@H](O)[C@H](O)[C@H]5O)[C@H](O)[C@H]4NC(C)=O)[C@@H]3O)[C@H](O)[C@H]2NC(C)=O)[C@H](O)[C@H]1NC(C)=O)C(=O)NCC(=O)O)C(C)C` [Example 2, 18 and 36Cys-disialo oligosaccharide Chain Added GLP-1], the “Relative Resistance” value [1] was 128.6, the “effect of suppressing rise in blood-sugar levels” value (C57BL/6JJcl mice; 0.9 nmol/kg intraperitoneal, compared with GLP-1 at 9 nmol/kg, FIG. 5) was “almost equal effect of suppressing rise in blood-sugar levels to that of GLP-1” and the “effect of suppressing rise in blood-sugar levels relative to that of GLP-1” value (C57BL/6JJcl mice; OGTT, from doses giving almost equal effect (0.9 vs 9 nmol/kg)) was “about 10 times”.
